Earlier results as cited in publication PMC3145338 (Journal of the American Chemical Society, 2011).
Like-named read-outs stand apart in the source and are kept apart here. Marks after values point to notes of the source that are not given here.

Conditions: BCA; for Kd: read-out: Kd^surf
[1] = SAM ligand 2, χ = 0.05, ref [Mrskich, 1995]
[2] = SAM ligand 2, ref [Lahiri, 1999a]
[3] = SAM ligand 2, ref [Lahiri, 1999b]

In the case of BCA: bovine carbonic anhydrase, the “koff^surf” value [1] is listed as 5.4 ^e 10^−3 s^−1, the “kon^surf” value [1] is listed as 1.9 ^e 10^4 M^−1 s^−1 and the “ΔG°surf” value [1] is listed as −9.0 ^e kcal mol^−1. For the same substance, the “koff^surf” value [2] was 5.3 ^e 10^−3 s^−1, the “kon^surf” value [2] was 3.5 ^e 10^4 M^−1 s^−1 and the “ΔG°surf” value [2] was −9.3 ^e kcal mol^−1. For the same substance, the “koff^surf” value [3] was 5.4 ^e 10^−3 s^−1, the “kon^surf” value [3] was 0.9 ^e 10^4 M^−1 s^−1 and the “ΔG°surf” value [3] was −8.5 ^e kcal mol^−1. The “koff^surf” value (mixed SAMs χ = 0.05, ref Mrksich et al. [10]) was 0.0054 s⁻¹, the Kd [1] was 260 nM and the Kd [2] was 150 nM. The Kd [3] was 560 nM.
